From ChEMBL document CHEMBL5729391, “Acyclic antivirals” (2022)

Test: Inhibition of HBV: Determination of 50% inhibitory concentration (EC50) of compounds in […] cells were performed by the following procedure. On the first day, cells were seeded at 30,000 cells per 100 μL well in Biocoat collage coated flat bottom 96 well plates. On the following day, test compounds were solubilized in 100% DMSO to 100× the desired final testing concentration. Each compound was then serially diluted (1:3) up to 9 different concentrations. Compounds in 100% DMSO are reduced to 10% DMSO by diluting 1:10 in assay media. The final DMSO concentration was 1%. The cells were incubated at 37° C. for 72 hours.The antiviral activity was measured using a quantitative kinetic reverse transcription-polymerase chain reaction (RT-PCR) assay directly measuring the HBV viral copy numbers from the supernatant of HepG2.117 cells. EC50 was defined as the concentration of compound at which the HBV viral copy numbers from the HepG2.117 cells was reduced 50% relative to its level in the absence of compound. HBV viral copy numbers are normalized to the level observed in the absence of inhibitor, which was defined as 100%.
Type: cell-based

SMILES | EC50
Nc1ncnn2c(C[C@H](CF)OCP(=O)(O)O)cnc12 | < 1 µM
Nc1ncnc2c(C[C@@H](OCP(=O)(O)O)C(F)F)cnn12 | in the range around 5.5 µM
CC(C)OC(=O)[C@H](C)NP(=O)(COC(C)Cc1cnc2c(=O)[nH]c(N)nn12)Oc1ccccc1 (some centres undefined) | < 1 µM
CC(C)OC(=O)[C@H](C)NP(=O)(CO[C@@H](CF)Cc1cnn2c(N)ncnc12)Oc1ccccc1 (some centres undefined) | < 1 µM
CC(C)OC(=O)[C@H](C)NP(=O)(CO[C@H](C)Cc1cnn2c(N)ncnc12)Oc1ccccc1 (some centres undefined) | < 1 µM
Nc1ncnn2c(C[C@@H](CF)OCP(=O)(O)O)cnc12 | in the range around 55 µM
Nc1ncnc2c(C[C@H](OCP(=O)(O)O)C(F)F)cnn12 | in the range around 5.5 µM
CC(C)OC(=O)[C@H](C)NP(=O)(CO[C@H](C)Cc1cnc2c(N)ncnn12)Oc1ccccc1 (some centres undefined) | < 1 µM
Nc1ncnc2c(CC3(OCP(=O)(O)O)CC3)cnn12 | in the range around 55 µM
CC(Cc1cnc2c(=O)[nH]c(N)nn12)OCP(=O)(O)O (centres undefined) | < 1 µM
CC(C)OC(=O)[C@H](C)NP(=O)(CO[C@H](CF)Cc1cnn2c(N)ncnc12)Oc1ccccc1 (some centres undefined) | < 1 µM
CC(C)OC(=O)OCOP(=O)(COC(C)Cc1ccc2c(=O)[nH]c(N)nn12)OCOC(=O)OC(C)C (centres undefined) | < 1 µM
CC(C)OC(=O)OCOP(=O)(CO[C@H](C)Cc1ccc2c(N)ncnn12)OCOC(=O)OC(C)C | < 1 µM
CC(C)OC(=O)OCOP(=O)(COC(C)Cc1ccc2c(N)nc(N)nn12)OCOC(=O)OC(C)C (centres undefined) | in the range around 5.5 µM
CC(C)OC(=O)OCOP(=O)(CO[C@H](C)Cc1cnc2c(N)ncnn12)OCOC(=O)OC(C)C | < 1 µM
CC(C)OC(=O)OCOP(=O)(COC(CF)Cc1cnn2c(N)ncnc12)OCOC(=O)OC(C)C (centres undefined) | < 1 µM
CC(C)OC(=O)OCOP(=O)(CO[C@@H](C)Cc1cnn2c(N)ncnc12)OCOC(=O)OC(C)C | < 1 µM
CC(C)OC(=O)OCOP(=O)(COCCc1ccc2c(N)ncnn12)OCOC(=O)OC(C)C | in the range around 5.5 µM
CC(C)OC(=O)OCOP(=O)(CO[C@H](C)Cc1cnn2c(N)ncnc12)OCOC(=O)OC(C)C | > 100 µM
